From article PMC7996082, “The translocator protein ligands as mitochondrial functional modulators for the potential anti-Alzheimer agents” (Journal of Enzyme Inhibition and Medicinal Chemistry, 2021) come the findings set out here.

Series [1] addresses T1, CYP1A2 (Homo sapiens, UniProt P05177).
T1 construct: purchased Invitrogen, Madison, WI, USA
T1 sequence (P05177 2-516 limits assumed): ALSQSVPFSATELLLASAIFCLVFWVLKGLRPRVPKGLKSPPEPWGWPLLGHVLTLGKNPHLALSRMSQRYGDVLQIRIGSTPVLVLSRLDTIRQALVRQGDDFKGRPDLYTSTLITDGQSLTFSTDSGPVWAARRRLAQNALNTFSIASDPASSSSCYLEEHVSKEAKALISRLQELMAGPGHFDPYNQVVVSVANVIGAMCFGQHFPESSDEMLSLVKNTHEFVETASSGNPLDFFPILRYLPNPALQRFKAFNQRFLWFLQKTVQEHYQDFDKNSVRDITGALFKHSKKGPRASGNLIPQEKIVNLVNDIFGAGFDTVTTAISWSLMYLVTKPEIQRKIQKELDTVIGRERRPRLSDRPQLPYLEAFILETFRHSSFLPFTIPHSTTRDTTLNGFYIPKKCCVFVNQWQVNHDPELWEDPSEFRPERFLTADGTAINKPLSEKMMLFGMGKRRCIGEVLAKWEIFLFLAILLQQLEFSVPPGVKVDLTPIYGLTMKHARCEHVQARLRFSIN
The series can be described thus: CYP inhibition assay (Vivid CYP450 screening kit). In kind it is in vitro ADME. To be noted: 10 μM compound. In outline:
(§1)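 Recombinant human CYP isozymes in baculosomes with rabbit NADPH-P450 reductase and a G6P/G6PDH regeneration system (100 mM potassium phosphate, pH 8.0) were preincubated with compound 5 min at 37 °C. Reactions were started with Vivid fluorogenic substrates and 0.1 mM NADP+, and % remaining activity was read by fluorescence after 20 min.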

In series [2] the target is T2, CYP2D6 (Homo sapiens, UniProt P10635).
T2 construct: purchased Invitrogen, Madison, WI, USA
Briefly: CYP inhibition assay (Vivid CYP450 screening kit). The format is in vitro ADME. To be noted: 10 μM compound. An outline of the steps:
as §1

Series [3] in a line: MTT assay: HT22 cell viability with compound alone. To be noted: mouse, HT22 cells; HT22 cell viability after 24 h of treatment with 5 μM compound, no Aβ. The format is cell-based, mouse. In outline: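 HT22 cells were seeded at 5,000 per well 24 h before exposure to test compound solution (5 µM) for 24 h at 37 °C. MTT was added for 2 h at 37 °C, then 10% Triton X-100/isopropanol/0.1 M HCl for 2 h, with OD read at 560 nm. Viability was normalised to vehicle (5 µM DMSO) as […].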

Series [4] can be described thus: Pharmacokinetic study in SD male rats. The format is in vivo, rat. To be noted: 10 mg/kg; for AUC(0-inf) / AUC(0-t) / clearance / Vd / bioavailability / Tmax / half-life / Cmax: Sprague-Dawley, rat, plasma; for bioavailability: oral vs intravenous; for half-life: male. The protocol: Each test compound at a dose of 10 mg/kg was administered intravenously or orally to male Sprague-Dawley (SD) rats. Blood samples collected via carotid artery at several time points after administration of each compound were stored at −70 °C until LC-MS/MS analysis. To determine the plasma concentration of each compound, a 0.1 µg/mL of internal standard in 100 µL of MeCN was added to 50 µL of plasma samples. After vortex-shaking and centrifugation at 10,000 rpm for 10 min, 5 µL of the supernatant was analysed by LC-MS/MS [HP1100® HPLC system (Agilent, Santa Clara, CA) combined with API3200® triple-quadrupole mass spectrometer (Applied Biosystems-SCIEX, Concord, Canada)]. The HPLC chromatographic separation was performed on a reversed-phase Xterra® C18 column (Waters Corporation, Milford, MA) using gradient elution consisted of 0.1% formic acid and 0.1% formic acid in 90% MeCN at a flow rate of 0.3 ml/min.

The nature of series [5]: Liver microsomal stability. To be noted: human, liver microsomes, 1 µM compound, 0.5 mg/mL microsomes, 30 min, 37 °C; read-out: Human Liver Microsomal Stability (% remaining after 30 min). In kind it is in vitro ADME. Here is the method: Liver microsomes (human, dog, rat, and mouse; 0.5 mg/mL) were incubated with 1 µM of each test compound in the presence of potassium phosphate buffer (PPB) for 5 min at 37 °C. A solution of the NADPH regeneration system (#44332000, Oriental Yeast Co., Japan) was added to begin metabolic reactions of liver microsomes. The resulting mixtures were incubated for 30 min at 37 °C, and the reaction was terminated by the addition of a cold MeCN solution containing an internal standard (chlorpropamide). The mixture was separated by centrifugation (14,000 rpm for 5 min at 4 °C), and the supernatant was analysed by LC-MS/MS (Shimadzu Nexera XR system and TSQ vantage; Thermo Scientific).

The target in series [6] is T3, CYP2C19 (Homo sapiens, UniProt P33261).
T3 construct: purchased Invitrogen, Madison, WI, USA
Briefly: CYP inhibition assay (Vivid CYP450 screening kit). In kind it is in vitro ADME. To be noted: 10 μM compound. In outline: as §1

[7] abbreviates: intravenous, n = 3, read-out: Vss.
Setting [8] is: n = 3, read-out: F (bioavailability).
The mark [9] stands for this setting: iv, intravenous, n = 3, read-out: Terminal half-life.
Where [10] appears, read: po, oral, n = 3, read-out: Terminal half-life.

Like-named read-outs stand apart in the source and are kept apart here.

T2 sequence (P10635 whole entry): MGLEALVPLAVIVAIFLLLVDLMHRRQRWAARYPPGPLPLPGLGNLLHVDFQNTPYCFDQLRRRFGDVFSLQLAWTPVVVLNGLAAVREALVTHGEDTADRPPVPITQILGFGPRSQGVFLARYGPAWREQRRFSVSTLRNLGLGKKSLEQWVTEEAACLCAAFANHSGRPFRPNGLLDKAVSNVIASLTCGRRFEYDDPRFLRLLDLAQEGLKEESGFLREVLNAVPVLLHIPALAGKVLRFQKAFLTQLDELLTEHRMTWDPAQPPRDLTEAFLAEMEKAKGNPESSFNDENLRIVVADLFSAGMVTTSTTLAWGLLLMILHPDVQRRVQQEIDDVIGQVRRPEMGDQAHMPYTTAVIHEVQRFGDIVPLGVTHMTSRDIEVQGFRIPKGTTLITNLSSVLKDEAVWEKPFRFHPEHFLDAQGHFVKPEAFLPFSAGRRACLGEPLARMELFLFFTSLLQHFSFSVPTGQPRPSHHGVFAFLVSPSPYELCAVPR
T3 sequence (P33261 whole entry): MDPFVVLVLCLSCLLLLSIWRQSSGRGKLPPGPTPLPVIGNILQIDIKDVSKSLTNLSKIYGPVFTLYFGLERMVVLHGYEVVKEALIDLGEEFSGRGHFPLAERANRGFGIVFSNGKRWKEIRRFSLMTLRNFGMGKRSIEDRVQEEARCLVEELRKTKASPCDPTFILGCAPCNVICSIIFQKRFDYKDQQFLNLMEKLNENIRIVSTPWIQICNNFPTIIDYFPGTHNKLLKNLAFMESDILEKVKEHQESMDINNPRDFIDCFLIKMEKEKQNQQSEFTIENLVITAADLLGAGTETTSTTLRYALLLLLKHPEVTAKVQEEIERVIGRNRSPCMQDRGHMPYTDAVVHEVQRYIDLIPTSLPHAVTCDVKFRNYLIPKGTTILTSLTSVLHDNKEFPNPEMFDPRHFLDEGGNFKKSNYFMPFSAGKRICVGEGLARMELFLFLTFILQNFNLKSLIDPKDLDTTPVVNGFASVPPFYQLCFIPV

In the case of `CCOc1ccc(-n2c(SCC(=O)Nc3ccc(OC)c(OC)c3)nc3sc4c(c3c2=O)CCN(C(C)=O)C4)cc1` [Compound 7], in series [1], the “CYP450 (% remaining Activity at 10 μM) CYP1A2” value was determined as 69.0%. Also, the “CYP450 (% remaining Activity at 10 μM) CYP2D6” value in series [2] came out at 83.3%. In series [3], the viability at 24 h, 5 µM came to 95%. In series [4] (intravenous, n = 5, Table S3), this compound had an AUC(0-inf) of 6030 ng·h/mL, an AUC(0-t) of 6000 ng·h/mL and a clearance of 28.9 ± 7.09 mL/min/kg. Moreover, the Vd in series [4] (intravenous, n = 5, Table S3, read-out: Vss) worked out at 1.74 L/kg. The bioavailability in series [4] (n = 5, Table S3, read-out: F (bioavailability)) was 37.3%. Besides, in series [4] (oral, n = 5, Table S3), the AUC(0-inf) is 2250 ng·h/mL, the AUC(0-t) was 1930 ng·h/mL and the Tmax was 2.2 h. The half-life in series [4] (iv, intravenous, n = 5, Table S3, read-out: Terminal half-life) stood at 1.04 ± 0.0785 h. In addition, the half-life in series [4] (po, oral, n = 5, Table S3, read-out: Terminal half-life) amounted to 2.35 ± 1.04 h. For the same compound, in series [5], the share remaining at 0.5 h, 1 µM stood at 49.6%.

With `CCOc1ccc(-n2c(SCC(=O)NC3CCN(C)CC3)nc3sc4c(c3c2=O)CCN(C(C)=O)C4)cc1` [Compound 30], the “CYP450 (% remaining Activity at 10 μM) CYP1A2” value in series [1] was 119.7%. In addition, in series [2], the “CYP450 (% remaining Activity at 10 μM) CYP2D6” value is given as 118.5%. Moreover, the “CYP450 (% remaining Activity at 10 μM) CYP2C19” value in series [6] is given as 107.6%. The viability at 24 h, 5 µM in series [3] amounted to 98%. The amount remaining at 0.5 h, 1 µM in series [5] was 99.1%.

For `CCOc1ccc(-n2c(SCC(=O)NCc3ccccc3)nc3sc4c(c3c2=O)CCN(C(C)=O)C4)cc1` [Compound 31], the “CYP450 (% remaining Activity at 10 μM) CYP1A2” value in series [1] is 143.1%. Further, in series [2], the “CYP450 (% remaining Activity at 10 μM) CYP2D6” value is 88.1%. Further, the “CYP450 (% remaining Activity at 10 μM) CYP2C19” value in series [6] is reported as 70.0%. Moreover, in series [3], the viability at 24 h, 5 µM came to 109%. The AUC(0-t) in series [4] (intravenous, n = 3) was 4560 ng·h/mL; in series [4] (oral, n = 3), 194 ng·h/mL. For the same compound, the clearance in series [4] (intravenous, n = 3) is 32.5 ± 10.1 mL/min/kg. Besides, the AUC(0-inf) was 5510 ng·h/mL in series [4] (intravenous, n = 3, mean ± SD) and 443 ng·h/mL in series [4] (oral, n = 3, mean ± SD). In series [4] (setting [7]), the Vd came out at 7.74 ± 1.11 L/kg. For the same compound, the bioavailability in series [4] (setting [8]) worked out at 8%. Further, the peak level in series [4] (oral, n = 3) (Cmax) was 40 ± 20 ng/mL. For the same compound, the Tmax in series [4] (oral, n = 3, range in brackets) is 0.8 h. Also, the half-life was 2.9 ± 0.54 h in series [4] (setting [9]) and 7.47 ± 0.46 h in series [4] (setting [10]). In addition, in series [5], the amount remaining at 0.5 h, 1 µM is 32.7%.

For the compound `CCOc1ccc(-n2c(SCC(=O)N3CCN(c4ccccc4)CC3)nc3sc4c(c3c2=O)CCN(C(C)=O)C4)cc1` [Compound 44], the “CYP450 (% remaining Activity at 10 μM) CYP1A2” value in series [1] was found to be 92.0%. Besides, the “CYP450 (% remaining Activity at 10 μM) CYP2D6” value in series [2] worked out at 117.3%. In addition, the “CYP450 (% remaining Activity at 10 μM) CYP2C19” value in series [6] stood at 28.3%. Also, the viability at 24 h, 5 µM in series [3] worked out at 97%. For the same compound, in series [4] (intravenous, n = 3), the AUC(0-t) is 17600 ng·h/mL, the clearance amounted to 9.43 ± 1.05 mL/min/kg and the Terminal half-life came to 1.336 ± 0.156 h. This compound gave an AUC(0-inf) in series [4] (intravenous, n = 3, mean ± SD) of 17800 ng·h/mL. Moreover, the Vd in series [4] (setting [7]) worked out at 0.785 ± 0.0396 L/kg. Further, the bioavailability in series [4] (setting [8]) was 78.4%. Further, in series [4] (oral, n = 3), the AUC(0-t) is 8120 ng·h/mL and the highest concentration (Cmax) amounted to 2110 ± 910 ng/mL. Further, the AUC(0-inf) in series [4] (oral, n = 3, mean ± SD) was 10200 ng·h/mL. Moreover, the Tmax in series [4] (oral, n = 3, range in brackets) worked out at 1.2 h. In addition, the half-life in series [4] (setting [9]) stood at 1.33 h. Further, the half-life in series [4] (setting [10]) was 3.32 ± 2.24 h. Also, in series [5], the fraction remaining at 0.5 h, 1 µM came out at 15.3%.

Consider `CCOc1ccc(-n2c(SCC(=O)NCc3ccccc3)nc3sc4c(c3c2=O)CCN(C)C4)cc1` [Compound 49], for which, in series [1], the “CYP450 (% remaining Activity at 10 μM) CYP1A2” value was 95.3%. For the same compound, the “CYP450 (% remaining Activity at 10 μM) CYP2D6” value in series [2] was found to be 43.1%. In addition, the “CYP450 (% remaining Activity at 10 μM) CYP2C19” value in series [6] came to 90.0%. Besides, the viability at 24 h, 5 µM in series [3] came to 99%. Moreover, the share remaining at 0.5 h, 1 µM in series [5] amounted to 87.9%.

As to `CCOc1ccc(-n2c(SCC(=O)N(C)Cc3ccccc3)nc3sc4c(c3c2=O)CCN(C)C4)cc1` [Compound 50], the “CYP450 (% remaining Activity at 10 μM) CYP1A2” value in series [1] amounted to 97.3%. The “CYP450 (% remaining Activity at 10 μM) CYP2D6” value in series [2] is recorded as 30.0%. The “CYP450 (% remaining Activity at 10 μM) CYP2C19” value in series [6] was 47.9%. For the same compound, the viability at 24 h, 5 µM in series [3] was found to be 95%. In addition, the fraction remaining at 0.5 h, 1 µM in series [5] was 73.1%.
